Test results taken from US9895369B2, “Stable and soluble formulations of receptor tyrosine kinase inhibitors, and methods of preparation thereof” (ForSight Vision4, Inc., priority 2014, dated 2018).

Experiments:
[1] = Precipitation during ambient (room temperature) storage of the formulation; type: physicochemical; conditions: high drug concentration; crystallized out during storage and during drug release
[2] = pH comparison of pazopanib/CAPTISOL solutions with similar composition; type: physicochemical; conditions: about 22.4 mg pazopanib salt + about 157 mg CAPTISOL (1.5x molar ratio to drug) in 1 mL water
Text: From the results of the pH and the chloride content analysis it is concluded that the pharmaceutical ingredient from sample-1 contains 2-HCl per each pazopanib molecule, compared to active from sample-2, which contains only 1 HCl/per drug molecule.

Row | Stability of high concentration formulations (on shelf and upon dilution) [1] | pH, measured [2] | SMILES
1 | very unstable | 3.36 | Cc1ccc(Nc2nccc(N(C)c3ccc4c(C)n(C)nc4c3)n2)cc1S(N)(=O)=O [Pazopanib-Sample 2 (1HCl), 5-[[4-[(2,3-Dimethyl-2H-indazol-6-yl)methylamino]-2-pyrimidinyl]amino]-2-methylbenzolsulfonamide]
2 |  | 1.68 | Cc1ccc(Nc2nccc(N(C)c3ccc4c(C)n(C)nc4c3)n2)cc1S(N)(=O)=O [Pazopanib-Sample 1, 5-[[4-[(2,3-Dimethyl-2H-indazol-6-yl)methylamino]-2-pyrimidinyl]amino]-2-methylbenzolsulfonamide]
3 |  | 3.34 | Cc1ccc(Nc2nccc(N(C)c3ccc4c(C)n(C)nc4c3)n2)cc1S(N)(=O)=O [Pazopanib-Sample 2-lyophilized-TFE (1HCl)] [5-[[4-[(2,3-Dimethyl-2H-indazol-6-yl)methylamino]-2-pyrimidinyl]amino]-2-methylbenzolsulfonamide]
